# Laboratory results reported in US10851073B2, “Protein tyrosine phosphatase inhibitors and methods of use thereof” (Calico Life Sciences LLC, priority 2019, dated 2020).
# Target: T1, His tagged PTPN2 (TC45) protein (Homo sapiens, UniProt P17706)
# T1 construct: made in house
# T1 sequence (P17706 with tags, fused parts or gaps isoform P17706-2): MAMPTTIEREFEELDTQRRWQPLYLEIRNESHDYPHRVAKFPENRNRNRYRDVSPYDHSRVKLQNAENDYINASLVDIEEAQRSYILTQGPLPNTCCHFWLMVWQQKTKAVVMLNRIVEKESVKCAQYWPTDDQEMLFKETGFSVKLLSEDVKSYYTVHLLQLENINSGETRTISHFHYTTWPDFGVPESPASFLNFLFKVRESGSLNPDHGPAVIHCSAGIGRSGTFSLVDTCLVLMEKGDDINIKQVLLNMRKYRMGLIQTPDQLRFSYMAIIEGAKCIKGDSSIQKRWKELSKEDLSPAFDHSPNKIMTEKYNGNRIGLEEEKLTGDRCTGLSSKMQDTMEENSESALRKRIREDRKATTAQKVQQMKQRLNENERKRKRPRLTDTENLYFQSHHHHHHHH
# Experiment: Mobility shift assay used to determine potency of PTPN2 inhibitors
# Assay type: biochemical
# Settings: enzyme 0.5 nM, substrate 2 μM; read-out: PTPN2 MSA IC50
# Method: Example 227: Mobility Shift Assay Used to Determine Potency of PTPN2 Inhibitors
# Compound activity was determined using in house His tagged PTPN2 (TC45) protein (SEQ ID NO: 1) in an in vitro enzymatic reaction. The enzymatic assay used to determine activity was a mobility shift assay using a LabChip EZ Reader by Caliper Life Sciences. The enzymatic reaction was carried out in assay buffer (50 mM HEPES pH 7.5, 1 mM EGTA, 10 mM EDTA, 0.01% Tween® 20, and 2 mM DTT). The compounds were dispensed on a white 384 well ProxiPlate™ (PerkinElmer Catalog #6008289) plate using the Labcyte Echo at varying concentrations (12 point, 1:3 dilution). The enzyme (at 0.5 nM) was incubated with compound for 10 minutes at room temperature. Then the substrate (phosphorylated insulin receptor probe sequence: ((OG488)-(NH—CH2—CH2—O—CH2—CH2—O—CH2—CO)-T-R-D-I-(PY)-E-T-D-Y-Y-R-K-K-NH2) (SEQ ID NO: 2) was added at 2 μM to the plates and incubated for another 10 minutes at room temperature. Finally, a quench solution (water and 4-bromo-3-(2-oxo-2-propoxyethoxy)-5-(3-{[1-(phenylmethanesulfonyl)piperidin-4-yl]amino}phenyl)thiophene-2-carboxylic acid) was added to the plates, which were then run on the EZ Reader (excitation 488 nm, emission 530 nm) to measure % conversion (the amount of phosphorylated substrate which was de-phosphorylated by PTPN2). […] The % inhibition was then used to calculate the IC50 values.
row,Compound,IC50 [µM]
1,"O=C1CN(c2c(O)cc3c(c2F)CC(NCC2CC2)CC3)S(=O)(=O)N1 (stereo not shown) [Compound 103, 5-{7-[(cyclopropylmethyl)amino]-1-fluoro-3-hydroxy-5,6,7,8-tetrahydronaphthalen-2-yl}-1λ^6,2,5-thiadiazolidine-1,1,3-trione]",0.01 to 0.1
2,"COC(CCNC1CCc2cc(O)c(N3CC(=O)NS3(=O)=O)c(F)c2C1)C(F)(F)F (stereo not shown) [Compound 152, 5-{1-fluoro-3-hydroxy-7-[(4,4,4-trifluoro-3-methoxybutyl)amino]-5,6,7,8-tetrahydronaphthalen-2-yl}-1λ^6,2,5-thiadiazolidine-1,1,3-trione]",0.001 to 0.01
3,"O=C1CN(c2c(O)cc3c(c2F)CC(NCCOC(F)(F)F)CC3)S(=O)(=O)N1 (stereo not shown) [Compound 169, 5-(1-fluoro-3-hydroxy-7-{[2-(trifluoromethoxy)ethyl]amino}-5,6,7,8-tetrahydronaphthalen-2-yl)-1λ^6,2,5-thiadiazolidine-1,1,3-trione]",0.01 to 0.1
4,"O=C1CN(c2c(O)cc3c(c2F)CN(C(=O)NCC2CCCO2)CC3)S(=O)(=O)N1 (stereo not shown) [Compound 263, 8-fluoro-6-hydroxy-N-[(oxolan-2-yl)methyl]-7-(1,1,4-trioxo-1λ^6,2,5-thiadiazolidin-2-yl)-3,4-dihydroisoquinoline-2(1H)-carboxamide]",0.01 to 0.1
5,"NCC1Cc2cc(O)c(N3CC(=O)NS3(=O)=O)c(F)c2C1 (stereo not shown) [Compound 267, 5-[2-(aminomethyl)-4-fluoro-6-hydroxy-2,3-dihydro-1H-inden-5-yl]-1λ^6,2,5-thiadiazolidine-1,1,3-trione 2,2,2-trifluoroacetate]",0.01 to 0.1
6,"CC(C)CCCC1CCc2cc(O)c(N3CC(=O)NS3(=O)=O)c(F)c2C1 (stereo not shown) [Compound 323, 5-[1-fluoro-3-hydroxy-7-(4-methylpentyl)-5,6,7,8-tetrahydronaphthalen-2-yl]-1λ^6,2,5-thiadiazolidine-1,1,3-trione]",0.001 to 0.01

# System: B16F10 mouse melanoma cells
# Experiment: B16F10 IFNγ-induced cellular growth inhibition assay
# Assay type: cell-based
# Settings: B16-F10, with 0.5 ng/mL IFNγ, read-out: B16F10 GI IC50
# Method: Example 229: B16F10 IFNγ-Induced Cellular Growth Inhibition Assay B16F10 mouse melanoma cells (ATCC Cat^# CRL-6475, Manassas, Va.) were seeded at a density of 500 cells per well in a 384-well clear bottom plate (Corning Cat^#3765, Corning, N.Y.) in 25 μL total volume of DMEM+10% FBS (Sigma Cat^# D6429 and Sigma Cat^# F4135, St. Louis, Mo.). Cells were allowed to adhere overnight at 37° C.+5% CO2. On the following day, 12.5 μL of mouse IFNγ (RD systems Cat^#485-MI/CF, Minneapolis, Minn.) was added to half of the plate (columns 13-24) at a concentration of 2 ng/mL for a final assay concentration of 0.5 ng/mL of IFNγ. Media only (12.5 μL of DMEM+10% FBS) was added to the remainder of the plate (columns 1-12). Next, compounds resuspended in DMSO (Sigma Cat^# D2650) at 100 mM were diluted in semi-log dilutions in DMSO ranging from 100 mM to 0.001 mM and DMSO only controls were included. The compound/DMSO dilutions were further diluted 1:250 in DMEM+10% FBS, and 12.5 μL of these dilutions were added in triplicates to cells of both treatment arms (with and without IFNγ). Final compound concentrations ranged from 100 μM to 0.001 μM with a final DMSO concentration of 0.1%. Compounds were only dosed in the inner 240 wells, avoiding the outer 2-well perimeter of the plate to minim/ze edge effects. Finally, the plate was loaded into an IncuCyte® S3 Live Cell Analysis System (Essen Bioscience-Sartorius, Ann Arbor, Mich.) maintained in a 37° C.+5% CO2 incubator, allowed to equilibrate for 2 hours, and imaged every 6 hours for 5 days. Confluence over time for compound dilutions in the presence and absence of IFNγ was measured. Growth inhibition values were obtained when the “DMSO/no IFNγ” control reached confluence >95%. At these time points, for each compound the percent growth inhibition at every compound dose level was calculated relative to the “DMSO/with IFNγ” control and used to determine the IC50.
row,IC50 [µM],Compound
1,1 to 10,"O=C1CN(c2c(O)cc3c(c2F)CC(NCC2CC2)CC3)S(=O)(=O)N1 (stereo not shown) [Compound 103, 5-{7-[(cyclopropylmethyl)amino]-1-fluoro-3-hydroxy-5,6,7,8-tetrahydronaphthalen-2-yl}-1λ^6,2,5-thiadiazolidine-1,1,3-trione]"
2,> 100,"N[C@H](CCC1CCCCC1)C(=O)N1CCc2cc(O)c(N3CC(=O)NS3(=O)=O)c(F)c2C1 [Compound 250, 5-{2-[(2R)-2-amino-4-cyclohexylbutanoyl]-8-fluoro-6-hydroxy-1,2,3,4-tetrahydroisoquinolin-7-yl}-1λ^6,2,5-thiadiazolidine-1,1,3-trione]"
3,1 to 10,"CC(C)OCCCN1CCc2cc(O)c(N3CC(=O)NS3(=O)=O)c(F)c2C1 [Compound 251, 5-(8-fluoro-6-hydroxy-2-{3-[(propan-2-yl)oxy]propyl}-1,2,3,4-tetrahydroisoquinolin-7-yl)-1λ^6,2,5-thiadiazolidine-1,1,3-trione]"
4,10 to 100,"Cn1cc(CCN2CCc3cc(O)c(N4CC(=O)NS4(=O)=O)c(F)c3C2)cn1 [Compound 252, 5-{8-fluoro-6-hydroxy-2-[2-(1-methyl-1H-pyrazol-4-yl)ethyl]-1,2,3,4-tetrahydroisoquinolin-7-yl}-1λ^6,2,5-thiadiazolidine-1,1,3-trione]"
5,1 to 10,"Cc1nn(CC(F)F)c(C)c1CCN1CCc2cc(O)c(N3CC(=O)NS3(=O)=O)c(F)c2C1 [Compound 253, 5-(2-{2-[1-(2,2-difluoroethyl)-3,5-dimethyl-1H-pyrazol-4-yl]ethyl}-8-fluoro-6-hydroxy-1,2,3,4-tetrahydroisoquinolin-7-yl)-1λ^6,2,5-thiadiazolidine-1,1,3-trione]"
6,1 to 10,"Cc1c(CCN2CCc3cc(O)c(N4CC(=O)NS4(=O)=O)c(F)c3C2)cnn1C [Compound 257, 5-{2-[2-(1,5-dimethyl-1H-pyrazol-4-yl)ethyl]-8-fluoro-6-hydroxy-1,2,3,4-tetrahydroisoquinolin-7-yl}-1λ^6,2,5-thiadiazolidine-1,1,3-trione]"
7,1 to 10,"O=C1CN(c2c(O)cc3c(c2F)CN(C(=O)NCC2CC2)CC3)S(=O)(=O)N1 [Compound 258, N-(cyclopropylmethyl)-8-fluoro-6-hydroxy-7-(1,1,4-trioxo-1λ^6,2,5-thiadiazolidin-2-yl)-3,4-dihydroisoquinoline-2(1H)-carboxamide]"
8,1 to 10,"O=C1CN(c2c(O)cc3c(c2F)CN(CCCC2CCCCC2)CC3)S(=O)(=O)N1 [Compound 286, 5-[2-(3-cyclohexylpropyl)-8-fluoro-6-hydroxy-1,2,3,4-tetrahydroisoquinolin-7-yl]-1λ^6,2,5-thiadiazolidine-1,1,3-trione]"
9,> 100,"Cc1noc(C)c1CCN1Cc2c(cc(O)c(N3CC(=O)NS3(=O)=O)c2F)C(F)(F)C1 [Compound 306, 5-{2-[2-(3,5-dimethyl-1,2-oxazol-4-yl)ethyl]-4,4,8-trifluoro-6-hydroxy-1,2,3,4-tetrahydroisoquinolin-7-yl}-1λ^6,2,5-thiadiazolidine-1,1,3-trione]"

# Second part, the molecule before the results:
row,Compound,IC50 [µM]
1,"O=C1CN(c2c(O)cc3c(c2F)CC(NCCOC(F)(F)F)CC3)S(=O)(=O)N1 (stereo not shown) [Compound 169, 5-(1-fluoro-3-hydroxy-7-{[2-(trifluoromethoxy)ethyl]amino}-5,6,7,8-tetrahydronaphthalen-2-yl)-1λ^6,2,5-thiadiazolidine-1,1,3-trione]",10 to 100
2,"O=C1CN(c2c(O)cc3c(c2F)CN(C(=O)NCC2CC(F)(F)C2)CC3)S(=O)(=O)N1 [Compound 262, N-[(3,3-difluorocyclobutyl)methyl]-8-fluoro-6-hydroxy-7-(1,1,4-trioxo-1λ^6,2,5-thiadiazolidin-2-yl)-3,4-dihydroisoquinoline-2(1H)-carboxamide]",10 to 100
3,"CCn1nc(C)c(CCN2CCc3cc(O)c(N4CC(=O)NS4(=O)=O)c(F)c3C2)c1C [Compound 276, 5-{2-[2-(1-ethyl-3,5-dimethyl-1H-pyrazol-4-yl)ethyl]-8-fluoro-6-hydroxy-1,2,3,4-tetrahydroisoquinolin-7-yl}-1λ^6,2,5-thiadiazolidine-1,1,3-trione]",1 to 10
4,"COCCCCN1CCc2cc(O)c(N3CC(=O)NS3(=O)=O)c(F)c2C1 [Compound 293, 5-[8-fluoro-6-hydroxy-2-(4-methoxybutyl)-1,2,3,4-tetrahydroisoquinolin-7-yl]-1λ^6,2,5-thiadiazolidine-1,1,3-trione]",1 to 10

# Same assay, conditions: B16-F10, with 0.5 ng/mL IFNγ, read-out: B16F10 Growth Inhibition IC50
row,IC50 [µM],Compound
1,3.2,CC(C)CCNc1ccc2cc(O)c(N3CC(=O)NS3(=O)=O)c(F)c2c1 [Compound V]
2,4.1,CC(C)(C)CCNc1ccc2cc(O)c(N3CC(=O)NS3(=O)=O)c(F)c2c1 [Compound W]
3,4.1,O=C1CN(c2c(O)cc3ccc(NCCC4CC4)cc3c2F)S(=O)(=O)N1 [Compound X]
